“Also recorded” adds a separate entry of the source.
Columns and labels:
[1] = Biodistribution in healthy ICR mice; type: in vivo
Protocol: (§1) In biodistribution study of normal mice, healthy ICR mice (18-20 g) were randomly divided into 6 groups (n = 4/group), injected with radiotracers (740 kBq in 0.1 mL saline) and sacrificed at 0.25, 1, 4, 8, 24 and 48 h p.i. Tissues and organs of interest were collected, wet weighed, and counted by a γ-counter. In addition, BALB/c nude mice bearing U87MG tumors were injected with radiotracers for SPECT imaging, and then, sacrificed at 96 h p.i., the major organs and tumors were collected and weighed. Radioactivity was detected using a γ-counter, and the results were calculated as percentage of injected dose per gram (%ID/g).

U87MG cells = assay: Cell uptake and blocking assay; type: cell-based
Protocol: (§2) U87MG cells were cultivated in Dulbecco modified Eagle medium (DMEM) containing 10% fetal calf serum (FCS) at 37 ℃ in 5% carbon dioxide (CO2). For cell uptake experiment, U87MG cells were seeded in 24-well plates (2 × 10^5/well) overnight. The cells were incubated with 37 kBq of ^177Lu-EB-FAPI series compounds in 0.5 mL of medium for 0.5, 1, 2, 4, 8 and 24 h at 37 °C. In the blocking group, FAPI-02 (10 μg/well) were added as inhibitors of the labeled precursors. For competition assays, U87MG cells were incubated simultaneously with different concentrations (10^-5-10^-11 M) of unlabeled FAPI-02 or EB-FAPI-B1 and ^68Ga-FAPI-02 in 0.4 mL of fresh medium for 1 h. At the corresponding time points, the medium was removed and the cells were washed twice with cold PBS (pH 7.4) and subsequently lysed with 1 mL of NaOH (0.1 M). Cell lysates was collected and the radioactivity was determined using a γ-counter. The cell uptake experiment was repeated four times for each time point and the competition assays were repeated three times at different concentrations.

[2] = In vitro stability in PBS and saline (radio-HPLC/TLC); type: physicochemical
[3] = Octanol/water partition coefficient; type: physicochemical
Protocol: A detailed scheme of chemical synthesis protocol is elaborated in the supplementary materials. To radiolabel the precursor with ^177Lu, 185-740 MBq of ^177LuCl3 was firstly diluted with 0.2 mL of 0.5 M NH4OAc (pH = 5.5) before incubating with EB-FAPI-Bn (50 μg dissolved in 10 μL dimethyl sulfoxide). The mixture was heated and thoroughly mixed for 30 min at 95 °C. Radiolabeling efficiency and radiochemical purity were tested using thin-layer chromatography (TLC) and high-performance liquid chromatography (HPLC). Radiolabeling of ^68Ga was performed by incubating with 50 μg precursor (pH = 4.5-5.0) at 95 ℃ for 10 min. The ^68Ga-labeled product was purified by C18 column extraction and the radiochemical purity was determined by HPLC. Stability of ^177Lu-EB-FAPI-B1, ^177Lu-EB-FAPI-B2, ^177Lu-EB-FAPI-B3 and ^177Lu-EB-FAPI-B4 (See Figure 1 for the structures) in PBS and saline were monitored up to 24 h using radio-HPLC. More information about radiochemistry, quality control and octanol/water partition coefficient can be found in supplemental information.

U87MG tumor [4] = assay: Small animal SPECT/CT imaging in U87MG tumor-bearing mice; type: in vivo, BALB/c nude mice
Protocol: (§3) All animal studies were approved by the Animal Care and Use Committee of Xiamen University and carried out in compliance with the national laws related to the conduct of animal experimentation. 6-week-old female BALB/c nude mice from Beijing Vital River Laboratory Animal Technology Co., Ltd. were used in this study. The right upper limbs of BALB/c nude mice were subcutaneously inoculated with the suspension of U87MG cells (5 × 10^6 cells in 100 μL of PBS). The mice underwent radioligand therapy experiments when the tumor volume reached about 100 mm^3 and small animal SPECT imaging studies when the tumor volume reached about 500 mm^3.
SPECT/CT imaging studies were performed using a nanoSPECT/CT preclinical scanner (Mediso, Hungary). About 37 MBq of radiotracers were injected intravenously into female ICR mice and U87MG tumor-bearing mice, whole body SPECT images were acquired at 1, 4, 24, 48, 72 and 96 h p.i. The acquisition parameters were as follows: 56.1, 112.9 and 208.4 keV energy peaks for ^177Lu, window width of 20%, matrix of 256 × 256, medium zoom, and 48 frames. Mice were anaesthetized using 1.5% isoflurane to maintain spontaneous breathing during imaging.

U87MG tumor [5] = assay: Biodistribution in U87MG tumor-bearing mice at 96 h p.i.; set-up: species or system BALB/c nude mice; conditions: ex vivo counting
Protocol: as §3, §1

U87MG tumor [6] = assay: Radioligand therapy study and tumor histopathology in U87MG tumor-bearing mice; type: in vivo, BALB/c nude mice
Protocol: as §3
(§4) Two weeks after inoculation of U87MG tumor cells, the average tumor volume reached about 100 mm^3 in BALB/c nude mice. The U87MG tumor-bearing mice were randomly divided into 4 groups (n = 8/group), and subsequently treated with saline, 30 MBq ^177Lu-EB-FAPI-B1, 18.5 MBq ^177Lu-EB-FAPI-B1, 7.4 MBq ^177Lu-EB-FAPI-B1, respectively. Tumor volumes and body weights of all mice were monitored every two days. Individual tumor size was calculated with the formula: length × width^2/2. The mice were euthanized when the tumor volume exceeded 1500 mm^3. Histopathologic staining was performed with an anti-human FAP mAb (ab207178, Abcam). Hematoxylin and eosin (H&E) staining and terminal deoxynucleotidyl transferase-mediated dUTP-biotin nick-end labeling (TUNEL) analysis were carried out using a commercially available kit (Beyotime).

[7] = Safety evaluation in the therapy study (body weight, H&E staining of major organs); type: in vivo, BALB/c nude mice
Protocol: as §4

U87MG tumor [8] = assay: Small animal PET imaging in U87MG tumor-bearing mice; type: in vivo; conditions: 1 h p.i.
Protocol: All animal studies were approved by the Animal Care and Use Committee of Xiamen University and carried out in compliance with the national laws related to the conduct of animal experimentation. 6-week-old female BALB/c nude mice from Beijing Vital River Laboratory Animal Technology Co., Ltd. were used in this study. The right upper limbs of BALB/c nude mice were subcutaneously inoculated with the suspension of U87MG cells (5 × 10^6 cells in 100 μL of PBS). […] PET scans were performed by using Inveon small-animal PET scanner (Siemens Preclinical Solution). […] At 1 h p.i., the mice were anaesthetized and placed on the bed for PET imaging. […] PET images were reconstructed with attenuation correction and analyzed through drawing regions of interest (ROIs).

FAP = biological target: T1, FAP (Homo sapiens, UniProt Q12884); assay: Competition assay against ^68Ga-FAPI-02 in U87MG cells; conditions: unlabeled ligand competing with ^68Ga-FAPI-02, 1 h, read-out: IC50 (binding affinity to FAP in vitro)
T1 construct: endogenous in cells; host or cells: U87MG cells
T1 sequence (Q12884 1-760): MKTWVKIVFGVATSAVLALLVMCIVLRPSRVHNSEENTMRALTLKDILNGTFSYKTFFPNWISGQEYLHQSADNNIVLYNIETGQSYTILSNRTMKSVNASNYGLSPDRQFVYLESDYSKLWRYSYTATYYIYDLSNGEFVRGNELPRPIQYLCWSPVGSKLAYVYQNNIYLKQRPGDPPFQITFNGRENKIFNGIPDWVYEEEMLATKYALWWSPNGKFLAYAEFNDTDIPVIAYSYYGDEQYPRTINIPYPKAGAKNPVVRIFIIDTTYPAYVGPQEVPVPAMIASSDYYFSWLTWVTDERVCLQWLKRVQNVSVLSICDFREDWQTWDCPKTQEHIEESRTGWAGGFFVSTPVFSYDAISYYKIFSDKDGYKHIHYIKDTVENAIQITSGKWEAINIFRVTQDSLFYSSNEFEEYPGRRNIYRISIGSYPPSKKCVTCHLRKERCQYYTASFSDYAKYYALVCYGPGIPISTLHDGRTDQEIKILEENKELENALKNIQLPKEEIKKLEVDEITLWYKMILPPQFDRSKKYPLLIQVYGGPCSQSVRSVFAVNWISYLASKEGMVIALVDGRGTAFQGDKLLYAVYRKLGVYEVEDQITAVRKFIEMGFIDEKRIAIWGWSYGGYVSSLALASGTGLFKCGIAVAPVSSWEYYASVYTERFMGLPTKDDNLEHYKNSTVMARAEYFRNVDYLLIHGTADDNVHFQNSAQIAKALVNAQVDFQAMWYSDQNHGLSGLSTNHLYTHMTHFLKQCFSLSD
Protocol: as §2

[9] = SPECT, value given with the increase from 24 h to 96 h p.i.

N#C[C@@H]1CCCN1C(=O)CNC(=O)c1ccnc2ccc(OCCCN3CCN(C(=O)CN4CCN(CC(=O)[O-])CCN(CC(=O)[O-])CCN(CC(=O)[O-])CC4)CC3)cc12.[177Lu+3] [^177Lu-FAPI-02, reference compound]
blood accumulation relative to ^177Lu-EB-FAPI-B1 ([1]; 4 h p.i.): about 1% | blood uptake ([1]; 4 h p.i.): 0.23 ± 0.06 %ID/g

Cc1cc(-c2ccc(NC(=O)C(CCCCNC(=O)CCC(=O)N3CCN(CCCOc4ccc5nccc(C(=O)NCC(=O)N6CCC[C@H]6C#N)c5c4)CC3)NC(=O)CN3CCN(CC(=O)[O-])CCN(CC(=O)[O-])CCN(CC(=O)[O-])CC3)c(C)c2)ccc1N=Nc1ccc2c(S(=O)(=O)O)cc(S(=O)(=O)O)c(N)c2c1O.[177Lu+3] (some centres unmarked) [^177Lu-EB-FAPI-B1]
cellular uptake with blocking by unlabeled inhibitor (U87MG cells; blocking group): 2.25 ± 0.14% | highest cellular uptake (U87MG cells; incubation for 24 h): 9.97 ± 0.42% | time stable in PBS (pH 7.4) and saline ([2]; PBS (pH 7.4) and saline): at least 24 h | radiochemistry purity after incubation ([2]; PBS and saline, at 24 h and 48 h): over 95% | Octanol/water partition coefficient (Log P) [3]: -1.90 ± 0.12 | tumor uptake on SPECT images (U87MG tumor [4]; 4 h p.i.): obvious tumor uptake was observed | tumor-to-muscle ratio (T/M) (U87MG tumor [4]; SPECT, 24 h p.i.): 12.29 ± 0.85 | tumor-to-muscle ratio (T/M), peak (U87MG tumor [4]; SPECT, 72 h p.i.): 18.67 ± 3.75 | tumor-to-muscle ratio (T/M) (U87MG tumor [4]; SPECT, 96 h p.i.): 14.15 ± 0.13 | tumor-to-heart ratio (T/H) (U87MG tumor [4]; [9]): 14.28 ± 2.46 | tumor-to-kidney ratio (T/K) (U87MG tumor [4]; [9]): 2.35 ± 0.61 | tumor-to-liver ratio (T/L) (U87MG tumor [4]; [9]): 3.73 ± 1.21 | blood uptake ([1]; 4 h p.i.): 21.93 ± 2.13 %ID/g | kidney uptake (highest value) ([1]; 8 h p.i.): 16.38 ± 2.98 %ID/g | kidney uptake ([1]; 48 h p.i.): 8.13 ± 1.36 %ID/g | tumor uptake (U87MG tumor [5]): 12.42 ± 1.54 %ID/g | TUNEL staining of excised tumor (U87MG tumor [6]; 18.5 MBq group versus saline group): remarkably more cell apoptosis | relative tumor size (U87MG tumor [6]; single dose of 30, 18.5 or 7.4 MBq (all three doses), day 0 to day 22): no more than 5 | tumor growth compared to the saline group (U87MG tumor [6]; single dose of 30 MBq, 18.5 MBq or 7.4 MBq): noteworthy tumor growth inhibitions; also recorded: noteworthy tumor growth delay | H&E staining of excised tumor (U87MG tumor [6]; treatment groups versus saline group): large necrotic areas | body weight change ([7]; all treatment groups (30, 18.5, 7.4 MBq)): slight body weight loss | H&E staining of major organs (safety evaluation) ([7]; heart, liver, spleen, lung, kidneys after treatment): negligible side effect; also recorded: no distinct tissue damage

N#C[C@@H]1CCCN1C(=O)CNC(=O)c1ccnc2ccc(OCCCN3CCN(C(=O)CN4CCN(CC(=O)[O-])CCN(CC(=O)[O-])CCN(CC(=O)[O-])CC4)CC3)cc12.[68Ga+3] [^68Ga-FAPI-02, reference compound]
tumor uptake value (U87MG tumor [8]): 0.85 ± 0.21 %ID/g | tumor uptake in the presence of the blocking agent EB-FAPI-B1 (U87MG tumor [8]; unlabeled EB-FAPI-B1 as competitor): decreased more than half

Cc1cc(-c2ccc(NC(=O)C(CCCCNC(=O)CCC(=O)N3CCN(CCCOc4ccc5nccc(C(=O)NCC(=O)N6CCC[C@H]6C#N)c5c4)CC3)NC(=O)CN3CCN(CC(=O)[O-])CCN(CC(=O)[O-])CCN(CC(=O)[O-])CC3)c(C)c2)ccc1N=Nc1ccc2c(S(=O)(=O)O)cc(S(=O)(=O)O)c(N)c2c1O.[68Ga+3] (some centres unmarked) [^68Ga-EB-FAPI-B1]
T/M ratio compared with ^68Ga-FAPI-02 (U87MG tumor [8]): higher T/M ratio | tumor uptake value (U87MG tumor [8]): 3.5 ± 0.22 %ID/g

N#C[C@@H]1CCCN1C(=O)CNC(=O)c1ccnc2ccc(OCCCN3CCN(C(=O)CN4CCN(CC(=O)O)CCN(CC(=O)O)CCN(CC(=O)O)CC4)CC3)cc12 [FAPI-02]
IC50 (FAP): 10.9 nM

From publication PMC8690933, “Evans blue-modified radiolabeled fibroblast activation protein inhibitor as long-acting cancer therapeutics” (Theranostics, 2022)
